Data as given in patent US11236105B2, “Bicyclic compounds and methods of use” (BioTheryX, Inc., priority 2017, dated 2022).

Test system: TNF-α
Assay: Cell-Based TNFα Inhibition Assay (PBMCs induced with LPS, Meso Scale)
Conditions: PBMCs pretreated 1 hr, induced with LPS 100 ng/mL 18-24 hrs, supernatant TNF-α; for inhibition at 0.1 µM / inhibition at 1 µM: PBMC; for inhibition at 0.1 µM / % TNFα Inhibition (0.1 μM): 0.1 μM compound; for inhibition at 1 µM / % TNFα Inhibition (1 μM): 1 μM compound
Description: Cell-Based TNFα Inhibition Assay
PBMCs induced with LPS (lipopolysaccharide): Frozen […] blood mononuclear cells (PBMCs) are purchased from AllCells. Cells are quick thawed, washed once with Roswell Park Memorial Institute medium (RPMI)-1640/10% FBS/1% Penicillin/1% Streptomycin and plated in 96 well plates at 200,000 cells per well. Cells are pretreated with DMSO only or the indicated compounds for 1 hr and then induced with […] for 18-24 hrs. The supernatant is analyzed for TNF-α using Meso Scale assay according to manufacturer's protocol. The negative control wells are treated with DMSO. Compound activity is measured as a percentage of the DMSO control.

## CS(=O)(=O)C[C@@H](c1ccc2c(c1)OCO2)N1C(=O)c2csc(NC(=O)C(F)(F)F)c2C1=O [Compound 17, N-(5-(1-(benzo[d][1,3]dioxol-5-yl)-2-(methylsulfonyl)ethyl)-4,6-dioxo-5,6-dihydro-4H-thieno[3,4-c]pyrrol-1-yl)-2,2,2-trifluoro Acetamide]
  inhibition at 0.1 µM: < 20%
  inhibition at 1 µM: < 20%

## CCOc1cc([C@@H](CS(C)(=O)=O)N2Cc3c(NC(=O)C(F)(F)F)csc3C2=O)ccc1OC [Compound 30, (S)—N-(5-(1-(3-ethoxy-4-methoxyphenyl)-2-(methylsulfonyl)ethyl)-6-oxo-5,6-dihydro-4H-thieno[2,3-c]pyrrol-3-yl)-2,2,2-trifluoroacetamide]
  inhibition at 0.1 µM: < 20%
  inhibition at 1 µM: < 20%

## CCOc1cc([C@@H](CS(C)(=O)=O)N2C(=O)c3csc(NC(=O)C4CC4)c3C2=O)ccc1OC [Compound 8, (S)—N-(5-(1-(3-ethoxy-4-methoxyphenyl)-2-(methylsulfonyl)ethyl)-4,6-dioxo-5,6-dihydro-4H-thieno[3,4-c]pyrrol-1-yl)cyclopropanecarboxamide]
  inhibition at 0.1 µM: < 20%
  inhibition at 1 µM: > 60%

## CS(=O)(=O)C[C@H](c1ccc2c(c1)OCO2)N1C(=O)c2scc(NC(=O)C(F)(F)F)c2C1=O [Compound 21, N-(5-(1-(benzo[d][1,3]dioxol-5-yl)-2-(methylsulfonyl)ethyl)-4,6-dioxo-5,6-dihydro-4H-thieno[2,3-c]pyrrol-3-yl)-2,2,2-trifluoroacetamide]
  inhibition at 0.1 µM: < 20%
  inhibition at 1 µM: < 20%

## CC(=O)Nc1csc2c1C(=O)N([C@H](CS(C)(=O)=O)c1ccc3c(c1)OCO3)C2=O [Compound 23, N-(5-(1-(benzo[d][1,3]dioxol-5-yl)-2-(methylsulfonyl)ethyl)-4,6-dioxo-5,6-dihydro-4H-thieno[2,3-c]pyrrol-3-yl)acetamide]
  inhibition at 0.1 µM: 20 to 40%
  inhibition at 1 µM: 40 to 60%

## CCOc1cc([C@@H](CS(C)(=O)=O)N2C(=O)c3csc(NC(=O)C(F)(F)F)c3C2=O)ccc1OC [Compound 7, (S)—N-(5-(1-(3-ethoxy-4-methoxyphenyl)-2-(methylsulfonyl)ethyl)-4,6-dioxo-5,6-dihydro-4H-thieno[3,4-c]pyrrol-1-yl)-2,2,2-trifluoroacetamide]
  inhibition at 0.1 µM: < 20%
  inhibition at 1 µM: < 20%

## CC(=O)Nc1csc2c1C(=O)N([C@H](CS(C)(=O)=O)c1ccc3c(c1)OCO3)C2=O [Compound 24, N-(5-(1-(benzo[d][1,3]dioxol-5-yl)-2-(methylsulfonyl)ethyl)-4,6-dioxo-5,6-dihydro-4H-thieno[2,3-c]pyrrol-3-yl)acetamide]
  % TNFα Inhibition (0.1 μM): D (D = a single percent inhibition value <20%)
  % TNFα Inhibition (1 μM): D (D = a single percent inhibition value <20%)

## CS(=O)(=O)C[C@H](c1ccc2c(c1)OCO2)N1C(=O)c2scc(NC(=O)C(F)(F)F)c2C1=O [Compound 22, N-(5-(1-(benzo[d][1,3]dioxol-5-yl)-2-(methylsulfonyl)ethyl)-4,6-dioxo-5,6-dihydro-4H-thieno[2,3-c]pyrrol-3-yl)-2,2,2-trifluoroacetamide]
  % TNFα Inhibition (0.1 μM): C (C = a single percent inhibition value ≤40% and >20%)
  % TNFα Inhibition (1 μM): C (C = a single percent inhibition value ≤40% and >20%)

## CCOc1cc([C@@H](CS(C)(=O)=O)N2Cc3c(NC(=O)COC)csc3C2=O)ccc1OC [Compound 31, (S)—N-(5-(1-(3-ethoxy-4-methoxyphenyl)-2-(methylsulfonyl)ethyl)-6-oxo-5,6-dihydro-4H-thieno[2,3-c]pyrrol-3-yl)-2-methoxyacetamide]
  inhibition at 0.1 µM: < 20%
  inhibition at 1 µM: < 20%

## CCOc1cc([C@@H](CS(C)(=O)=O)N2C(=O)c3csc(NC(=O)C(C)(C)C)c3C2=O)ccc1OC [Compound 2, (S)—N-(5-(1-(3-ethoxy-4-methoxyphenyl)-2-(methylsulfonyl)ethyl)-4,6-dioxo-5,6-dihydro-4H-thieno[3,4-c]pyrrol-1-yl)pivalamide]
  inhibition at 0.1 µM: < 20%
  inhibition at 1 µM: > 60%

## CCOc1cc([C@@H](CS(C)(=O)=O)N2C(=O)c3scc(NC(=O)C(F)(F)F)c3C2=O)ccc1OC [Compound 9, (S)—N-(5-(1-(3-ethoxy-4-methoxyphenyl)-2-(methylsulfonyl)ethyl)-4,6-dioxo-5,6-dihydro-4H-thieno[2,3-c]pyrrol-3-yl)-2,2,2-trifluoroacetamide]
  inhibition at 0.1 µM: < 20%
  inhibition at 1 µM: 40 to 60%

## CCOc1cc([C@@H](CS(C)(=O)=O)N2Cc3c(NC(=O)C4CC4)csc3C2=O)ccc1OC [Compound 32, (S)—N-(5-(1-(3-ethoxy-4-methoxyphenyl)-2-(methylsulfonyl)ethyl)-6-oxo-5,6-dihydro-4H-thieno[2,3-c]pyrrol-3-yl)cyclopropanecarboxamide]
  inhibition at 0.1 µM: < 20%
  inhibition at 1 µM: 20 to 40%

## CS(=O)(=O)C[C@H](c1ccc2c(c1)OCO2)N1C(=O)c2csc(NC(=O)C3CC3)c2C1=O [Compound 13, N-(5-(1-(benzo[d][1,3]dioxol-5-yl)-2-(methylsulfonyl)ethyl)-4,6-dioxo-5,6-dihydro-4H-thieno[3,4-c]pyrrol-1-yl)cyclopropane Carboxamide]
  inhibition at 0.1 µM: < 20%
  inhibition at 1 µM: < 20%

## CC(=O)Nc1scc2c1C(=O)N([C@H](CS(=O)(=O)N(C)C)c1ccc3c(c1)OCO3)C2=O [Compound 27, N-(5-(1-(benzo[d][1,3]dioxol-5-yl)-2-(N,N-dimethylsulfamoyl)ethyl)-4,6-dioxo-5,6-dihydro-4H-thieno[3,4-c]pyrrol-1-yl)acetamide]
  inhibition at 0.1 µM: < 20%
  inhibition at 1 µM: < 20%

## CCOc1cc([C@@H](CS(C)(=O)=O)N2C(=O)c3scc(NC(=O)C4CC4)c3C2=O)ccc1OC [Compound 11, (S)—N-(5-(1-(3-ethoxy-4-methoxyphenyl)-2-(methylsulfonyl)ethyl)-4,6-dioxo-5,6-dihydro-4H-thieno[2,3-c]pyrrol-3-yl)cyclopropanecarboxamide]
  inhibition at 0.1 µM: < 20%
  inhibition at 1 µM: 20 to 40%

## CC(=O)Nc1scc2c1C(=O)N([C@H](CS(C)(=O)=O)c1ccc3c(c1)OCCO3)C2=O [Compound 14, N-(5-(1-(2,3-dihydrobenzo[b][1,4]dioxin-6-yl)-2-(methylsulfonyl)ethyl)-4,6-dioxo-5,6-dihydro-4H-thieno[3,4-c]pyrrol-1-yl) acetamide]
  inhibition at 0.1 µM: < 20%
  inhibition at 1 µM: < 20%

## CCOc1cc([C@@H](CS(C)(=O)=O)N2C(=O)c3scc(NC(=O)COC)c3C2=O)ccc1OC [Compound 10, (S)—N-(5-(1-(3-ethoxy-4-methoxyphenyl)-2-(methylsulfonyl)ethyl)-4,6-dioxo-5,6-dihydro-4H-thieno[2,3-c]pyrrol-3-yl)-2-methoxyacetamide]
  inhibition at 0.1 µM: < 20%
  inhibition at 1 µM: 40 to 60%

## CCOc1cc([C@@H](CS(C)(=O)=O)N2C(=O)c3csc(NC(=O)COC)c3C2=O)ccc1OC [Compound 3, (S)—N-(5-(1-(3-ethoxy-4-methoxyphenyl)-2-(methylsulfonyl)ethyl)-4,6-dioxo-5,6-dihydro-4H-thieno[3,4-c]pyrrol-1-yl)-2-methoxyacetamide]
  inhibition at 0.1 µM: 40 to 60%
  inhibition at 1 µM: > 60%

## CCOc1cc([C@@H](CS(C)(=O)=O)N2C(=O)c3csc(NC(=O)C(CC)CC)c3C2=O)ccc1OC [Compound 6]
  inhibition at 0.1 µM: 40 to 60%
  inhibition at 1 µM: > 60%

## CCOc1cc([C@@H](CS(C)(=O)=O)N2C(=O)c3csc(N(C(=O)C4CC4)C(=O)C4CC4)c3C2=O)ccc1OC [Compound 4]
  inhibition at 0.1 µM: < 20%
  inhibition at 1 µM: 40 to 60%

## CCOc1cc([C@@H](CS(C)(=O)=O)N2C(=O)c3csc(NC(=O)C(C)C(F)(F)F)c3C2=O)ccc1OC (stereo partly drawn) [Compound 5, N-(5-((S)-1-(3-ethoxy-4-methoxyphenyl)-2-(methylsulfonyl)ethyl)-4,6-dioxo-5,6-dihydro-4H-thieno[3,4-c]pyrrol-1-yl)-3,3,3-trifluoro-2-methylpropanamide]
  inhibition at 0.1 µM: 20 to 40%
  inhibition at 1 µM: > 60%

## COCC(=O)Nc1csc2c1C(=O)N([C@@H](CS(C)(=O)=O)c1ccc3c(c1)OCO3)C2=O [Compound 26, N-(5-(1-(benzo[d][1,3]dioxol-5-yl)-2-(methylsulfonyl)ethyl)-4,6-dioxo-5,6-dihydro-4H-thieno[2,3-c]pyrrol-3-yl)-2-methoxy acetamide]
  inhibition at 0.1 µM: < 20%
  inhibition at 1 µM: < 20%

## CCOc1cc([C@@H](CS(C)(=O)=O)N2C(=O)c3csc(NC(C)=O)c3C2=O)ccc1OC [Compound 1, (S)—N-(5-(1-(3-ethoxy-4-methoxyphenyl)-2-(methylsulfonyl)ethyl)-4,6-dioxo-5,6-dihydro-4H-thieno[3,4-c]pyrrol-1-yl)acetamide]
  inhibition at 0.1 µM: 40 to 60%
  inhibition at 1 µM: > 60%

## CS(=O)(=O)C[C@H](c1ccc2c(c1)OCO2)N1C(=O)c2csc(NC(=O)C(F)(F)F)c2C1=O [Compound 16, N-(5-(1-(benzo[d][1,3]dioxol-5-yl)-2-(methylsulfonyl)ethyl)-4,6-dioxo-5,6-dihydro-4H-thieno[3,4-c]pyrrol-1-yl)-2,2,2-trifluoro Acetamide]
  inhibition at 0.1 µM: < 20%
  inhibition at 1 µM: < 20%

## CCOc1cc([C@H](CS(=O)(=O)N(C)C)N2C(=O)c3csc(NC(C)=O)c3C2=O)ccc1OC [Compound 29, (R)—N-(5-(2-(N,N-dimethylsulfamoyl)-1-(3-ethoxy-4-methoxyphenyl)ethyl)-4,6-dioxo-5,6-dihydro-4H-thieno[3,4-c]pyrrol-1-yl)acetamide]
  inhibition at 0.1 µM: < 20%
  inhibition at 1 µM: < 20%
